From patent EP1634598A1, “Use of piperazine derivatives and analogues for the manufacture of a medicament for the prophylaxis and/or treatment of disorders of food ingestion” (LABORATORIOS DEL DR. ESTEVE, S.A., priority 2004, dated 2006)

What was measured:
[1] = tested on: a selection of other relevant receptors; settings: according to US2003/0171347A1, page 7, table2 and page 8, table 3; cited from earlier work
Obese Rats (DIO) = assay: Chronical treatment of obese rats (DIO); format: in vivo; settings: 50 mg/Kg i.p., one injection per day for 9 days, followed for 10 more days, compared to Saline, data only in Figures 1 to 4
Protocol: Obese Rats (DIO) were treated for 9 days intraperitoneally (i.p.) one injection per day with Saline, with BD-1063 at 50 mg/Kg and PRE-084 at 25 mg /Kg, a well known […]. During that time each day and at some points during the following 10 days the weight giving the difference in weight (referring to the day of starting the treatment) was determined, as were the blood glucose levels, blood level of cholesterol, blood level of Triglycerides (TG).

SMILES	binding to a selection of other relevant receptors [1]	effect on the weight (in weight difference), blood glucose levels, blood level of cholesterol, blood level of Triglycerides (TG) (Obese Rats (DIO))
CN(C)CCN(C)CCc1ccc(Cl)c(Cl)c1 [BD-1047, N1-(3,4-dichlorophenethyl)-N1,N2,N2-trimethylethane-1,2-diamine]	no or only slight binding	
CN1CCN(CCc2ccc(Cl)c(Cl)c2)CC1 [BD-1063, 1-(3,4-dichlorophenethyl)-4-methylpiperazine]	no or only slight binding	highly effective
